Legend:
[1] = Competitive antagonist at alpha-adrenergic receptor in New Zealand rabbit aorta assessed as methoxamine-induced contraction after 45 mins; type: tissue-based, Oryctolagus cuniculus
[2] = molecular target: Adrenergic receptor alpha; experiment: Antagonist at postsynaptic alpha-adrenergic receptor in rat vas deferens; type: tissue-based

pA2 [2]	SMILES	pA2 [1]
–	COc1cccc(OC)c1OCCNC[C@H]1COc2ccccc2O1.Cl	9.02
9.8	COc1cccc(OC)c1OCCNCC1COc2ccccc2O1 (racemic)	8.83
–	COc1cccc(OC)c1OCCNC[C@@H]1COc2ccccc2O1.Cl	7.35
